Tests used:
Assay in all cases: SelectScreen ZLYTE
Type in all cases: biochemical
PHKG2 = biological target: T1, PHKG2 (Homo sapiens, UniProt P15735); details: ATP Km, read-out: Percentage of inhibition
T1 construct: purchased Life Technologies (SelectScreen)
Procedure, shortened: (§1)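 Each panel kinase received the compound at a fixed 1 μM; inhibition percentages were recorded, with ≥80% used as the cut-off for hits.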

HCK = biological target: T2, HCK (Homo sapiens, UniProt P08631); details: ATP Km, read-out: Percentage of inhibition
T2 construct: purchased Life Technologies
Procedure, shortened: as §1

RAF1 (cRAF) Y340D Y341D = biological target: T3, RAF1 (cRAF) Y340D Y341D (Homo sapiens, UniProt P04049, Y340D/Y341D); details: ATP 100 µM, read-out: Percentage of inhibition
T3 construct: purchased Life Technologies
T3 sequence (P04049 whole entry Y340D/Y341D): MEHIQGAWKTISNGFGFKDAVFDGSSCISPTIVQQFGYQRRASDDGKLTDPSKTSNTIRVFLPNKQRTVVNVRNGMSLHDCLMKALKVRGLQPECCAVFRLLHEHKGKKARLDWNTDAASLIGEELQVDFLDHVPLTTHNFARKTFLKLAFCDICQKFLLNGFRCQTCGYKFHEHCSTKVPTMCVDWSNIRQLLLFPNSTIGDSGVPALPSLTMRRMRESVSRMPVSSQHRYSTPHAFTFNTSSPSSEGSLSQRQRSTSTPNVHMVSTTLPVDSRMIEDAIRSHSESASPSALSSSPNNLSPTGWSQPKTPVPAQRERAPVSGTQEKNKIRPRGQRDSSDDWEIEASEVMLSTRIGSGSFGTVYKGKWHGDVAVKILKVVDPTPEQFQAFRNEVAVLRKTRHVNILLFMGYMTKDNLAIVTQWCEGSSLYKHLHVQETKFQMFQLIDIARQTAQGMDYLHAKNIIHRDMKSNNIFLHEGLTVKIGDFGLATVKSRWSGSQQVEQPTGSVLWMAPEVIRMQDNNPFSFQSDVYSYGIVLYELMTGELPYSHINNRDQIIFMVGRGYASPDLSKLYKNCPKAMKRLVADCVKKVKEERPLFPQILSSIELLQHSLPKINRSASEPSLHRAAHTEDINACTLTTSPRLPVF
Procedure, shortened: as §1

EGFR (ErbB1) T790M = biological target: T4, EGFR (ErbB1) T790M (Homo sapiens, UniProt P00533, T790M); details: ATP Km, read-out: Percentage of inhibition
T4 construct: purchased Life Technologies
Procedure, shortened: as §1

ABL1 T315I = biological target: T5, ABL1 T315I (Homo sapiens, UniProt P00519, T315I); details: ATP Km, read-out: Percentage of inhibition
T5 construct: purchased Life Technologies (SelectScreen service)
Procedure, shortened: as §1

LCK = LCK (Homo sapiens, UniProt P06239); details: ATP Km, read-out: Percentage of inhibition
Procedure, shortened: as §1

ABL2 (Arg) = biological target: T6, ABL2 (Arg) (Homo sapiens, UniProt P42684); details: ATP Km, read-out: Percentage of inhibition
T6 construct: purchased Life Technologies (SelectScreen service)
T6 sequence (P42684 whole entry): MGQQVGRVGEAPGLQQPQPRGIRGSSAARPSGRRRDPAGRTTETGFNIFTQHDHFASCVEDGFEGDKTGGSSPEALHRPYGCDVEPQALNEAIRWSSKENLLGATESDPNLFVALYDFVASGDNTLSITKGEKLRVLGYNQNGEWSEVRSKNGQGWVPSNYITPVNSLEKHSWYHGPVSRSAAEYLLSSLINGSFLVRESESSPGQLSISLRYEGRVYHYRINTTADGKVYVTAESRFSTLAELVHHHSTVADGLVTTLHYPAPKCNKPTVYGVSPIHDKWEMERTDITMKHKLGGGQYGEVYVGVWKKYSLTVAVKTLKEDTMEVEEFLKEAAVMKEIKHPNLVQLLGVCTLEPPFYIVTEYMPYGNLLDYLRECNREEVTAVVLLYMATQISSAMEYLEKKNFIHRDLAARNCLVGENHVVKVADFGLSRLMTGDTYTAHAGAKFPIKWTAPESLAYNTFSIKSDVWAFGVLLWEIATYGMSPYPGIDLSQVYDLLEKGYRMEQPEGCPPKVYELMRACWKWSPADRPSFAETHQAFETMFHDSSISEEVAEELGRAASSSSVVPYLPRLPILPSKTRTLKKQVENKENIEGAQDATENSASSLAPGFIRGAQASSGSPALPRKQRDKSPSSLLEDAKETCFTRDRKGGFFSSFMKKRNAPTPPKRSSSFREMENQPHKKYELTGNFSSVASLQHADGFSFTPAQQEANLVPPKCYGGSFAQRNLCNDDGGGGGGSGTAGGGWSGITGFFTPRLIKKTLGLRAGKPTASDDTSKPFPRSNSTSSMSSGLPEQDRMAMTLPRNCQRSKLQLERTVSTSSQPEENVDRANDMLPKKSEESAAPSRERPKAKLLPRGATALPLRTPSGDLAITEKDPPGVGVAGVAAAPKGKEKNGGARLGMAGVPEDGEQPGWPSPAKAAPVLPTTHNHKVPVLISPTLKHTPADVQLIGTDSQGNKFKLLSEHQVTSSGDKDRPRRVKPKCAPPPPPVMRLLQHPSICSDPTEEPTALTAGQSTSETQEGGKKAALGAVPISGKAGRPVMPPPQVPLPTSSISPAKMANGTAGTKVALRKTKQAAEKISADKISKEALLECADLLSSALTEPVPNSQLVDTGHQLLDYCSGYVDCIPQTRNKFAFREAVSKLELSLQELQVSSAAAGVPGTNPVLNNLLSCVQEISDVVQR
Procedure, shortened: as §1

MAP3K9 (MLK1) = MAP3K9 (MLK1) (Homo sapiens, UniProt P80192); details: ATP Km, read-out: Percentage of inhibition
Procedure, shortened: as §1

RPS6KB2 (p70S6Kb) = biological target: T7, RPS6KB2 (p70S6Kb) (Homo sapiens, UniProt Q9UBS0); details: ATP Km, read-out: Percentage of inhibition
T7 construct: purchased Life Technologies (SelectScreen)
Procedure, shortened: as §1

RPS6KA4 (MSK2) = biological target: T8, RPS6KA4 (MSK2) (Homo sapiens, UniProt O75676); details: ATP Km, read-out: Percentage of inhibition
T8 construct: purchased Life Technologies
T8 sequence (O75676 whole entry): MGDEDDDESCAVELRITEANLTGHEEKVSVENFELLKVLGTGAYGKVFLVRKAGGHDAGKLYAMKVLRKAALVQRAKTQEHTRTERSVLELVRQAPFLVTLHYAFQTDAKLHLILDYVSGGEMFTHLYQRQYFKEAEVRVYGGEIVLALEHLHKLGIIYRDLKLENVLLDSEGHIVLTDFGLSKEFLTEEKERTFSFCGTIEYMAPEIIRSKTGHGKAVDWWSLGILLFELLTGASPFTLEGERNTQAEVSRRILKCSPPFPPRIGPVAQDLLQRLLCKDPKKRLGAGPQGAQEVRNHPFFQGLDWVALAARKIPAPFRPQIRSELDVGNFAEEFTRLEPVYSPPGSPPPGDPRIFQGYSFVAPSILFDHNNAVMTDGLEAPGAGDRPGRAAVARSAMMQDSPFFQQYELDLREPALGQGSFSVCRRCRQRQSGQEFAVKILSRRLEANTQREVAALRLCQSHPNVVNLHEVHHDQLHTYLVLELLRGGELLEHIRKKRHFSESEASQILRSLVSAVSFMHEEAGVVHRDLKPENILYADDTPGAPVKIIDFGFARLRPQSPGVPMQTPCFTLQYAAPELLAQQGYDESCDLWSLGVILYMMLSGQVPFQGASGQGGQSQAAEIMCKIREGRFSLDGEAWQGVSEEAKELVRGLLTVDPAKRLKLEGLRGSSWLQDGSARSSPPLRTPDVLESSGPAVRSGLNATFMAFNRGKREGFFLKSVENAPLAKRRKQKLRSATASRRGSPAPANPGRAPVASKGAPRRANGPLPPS
Procedure, shortened: as §1

MET M1250T = biological target: T9, MET M1250T (Homo sapiens, UniProt P08581, M1250T); details: ATP Km, read-out: Percentage of inhibition
T9 construct: purchased Life Technologies (SelectScreen Whole Panel service)
Procedure, shortened: as §1

CDK18/cyclin Y = biological target: T10, CDK18/cyclin Y (Homo sapiens, UniProt Q07002); details: ATP Km, read-out: Percentage of inhibition
T10 construct: purchased Life Technologies
Procedure, shortened: as §1

KIT V559D V654A = KIT V559D V654A (Homo sapiens, UniProt P10721, V559D/V654A); details: ATP Km, read-out: Percentage of inhibition
Procedure, shortened: as §1

ABL1 E255K = biological target: T11, ABL1 E255K (Homo sapiens, UniProt P00519, E255K); details: ATP Km, read-out: Percentage of inhibition
T11 construct: purchased Life Technologies
Procedure, shortened: as §1

GRK4 = biological target: T12, GRK4 (Homo sapiens, UniProt P32298); details: ATP Km, read-out: Percentage of inhibition
T12 construct: purchased Life Technologies
Procedure, shortened: as §1

JAK2 JH1 JH2 = biological target: T13, JAK2 JH1 JH2 (Homo sapiens, UniProt O60674); details: ATP Km, read-out: Percentage of inhibition
T13 construct: JAK2 JH1 JH2; purchased Life Technologies
Procedure, shortened: as §1

MAP4K4 (HGK) = biological target: T14, MAP4K4 (HGK) (Homo sapiens, UniProt O95819); details: ATP Km, read-out: Percentage of inhibition
T14 construct: purchased Life Technologies (SelectScreen service)
Procedure, shortened: as §1

MAP3K19 (YSK4) = biological target: T15, MAP3K19 (YSK4) (Homo sapiens, UniProt Q56UN5); details: ATP Km, read-out: Percentage of inhibition
T15 construct: purchased Life Technologies (SelectScreen Whole Panel)
Procedure, shortened: as §1

MAP4K2 (GCK) = biological target: T16, MAP4K2 (GCK) (Homo sapiens, UniProt Q12851); details: ATP Km, read-out: Percentage of inhibition
T16 construct: purchased Life Technologies (SelectScreen Whole Panel service)
Procedure, shortened: as §1

EGFR (ErbB1) G719S = biological target: T17, EGFR (ErbB1) G719S (Homo sapiens, UniProt P00533, G719S); details: ATP Km, read-out: Percentage of inhibition
T17 construct: purchased Life Technologies (SelectScreen Whole Panel service)
T17 sequence (P00533 25-1210 G719S): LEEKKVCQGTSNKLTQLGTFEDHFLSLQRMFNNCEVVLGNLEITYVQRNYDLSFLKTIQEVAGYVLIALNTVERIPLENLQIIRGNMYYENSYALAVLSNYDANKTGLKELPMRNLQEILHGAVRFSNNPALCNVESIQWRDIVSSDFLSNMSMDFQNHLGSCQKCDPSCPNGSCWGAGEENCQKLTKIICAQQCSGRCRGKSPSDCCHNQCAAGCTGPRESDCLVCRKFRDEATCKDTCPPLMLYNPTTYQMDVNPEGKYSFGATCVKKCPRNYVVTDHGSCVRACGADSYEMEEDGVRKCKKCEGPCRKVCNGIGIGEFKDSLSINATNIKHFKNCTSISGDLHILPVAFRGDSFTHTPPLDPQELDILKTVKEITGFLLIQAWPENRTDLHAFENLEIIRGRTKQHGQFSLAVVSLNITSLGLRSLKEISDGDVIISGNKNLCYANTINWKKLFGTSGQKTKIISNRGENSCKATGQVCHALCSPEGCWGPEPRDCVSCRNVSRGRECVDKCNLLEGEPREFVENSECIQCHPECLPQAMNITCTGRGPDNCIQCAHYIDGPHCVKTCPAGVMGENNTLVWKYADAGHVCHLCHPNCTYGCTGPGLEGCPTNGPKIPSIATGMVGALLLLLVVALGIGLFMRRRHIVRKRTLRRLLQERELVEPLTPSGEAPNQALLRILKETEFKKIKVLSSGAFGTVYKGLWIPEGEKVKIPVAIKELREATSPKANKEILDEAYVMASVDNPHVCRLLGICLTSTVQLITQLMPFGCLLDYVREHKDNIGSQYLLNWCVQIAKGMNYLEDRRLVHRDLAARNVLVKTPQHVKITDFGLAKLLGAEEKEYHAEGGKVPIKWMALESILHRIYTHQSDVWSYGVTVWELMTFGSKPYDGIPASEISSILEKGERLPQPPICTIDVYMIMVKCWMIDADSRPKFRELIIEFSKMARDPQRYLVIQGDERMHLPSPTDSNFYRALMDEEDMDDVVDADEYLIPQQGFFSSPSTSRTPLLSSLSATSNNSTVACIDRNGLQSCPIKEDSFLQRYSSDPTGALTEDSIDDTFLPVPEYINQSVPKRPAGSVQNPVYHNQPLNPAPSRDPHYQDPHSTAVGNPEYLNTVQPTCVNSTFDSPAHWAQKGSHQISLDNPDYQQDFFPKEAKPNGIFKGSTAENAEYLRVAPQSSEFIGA
Procedure, shortened: as §1

EEF2K = biological target: T18, EEF2K (Homo sapiens, UniProt O00418); details: ATP Km, read-out: Percentage of inhibition
T18 construct: purchased Life Technologies (SelectScreen)
Procedure, shortened: as §1

ADRBK2 (GRK3) = biological target: T19, ADRBK2 (GRK3) (Homo sapiens, UniProt P35626); details: ATP Km, read-out: Percentage of inhibition
T19 construct: purchased Life Technologies (SelectScreen Whole Panel)
Procedure, shortened: as §1

EGFR (ErbB1) C797S = biological target: T20, EGFR (ErbB1) C797S (Homo sapiens, UniProt P00533, C797S); details: ATP Km, read-out: Percentage of inhibition
T20 construct: purchased Life Technologies
Procedure, shortened: as §1

DNA-PK = biological target: T21, DNA-PK (Homo sapiens, UniProt P78527); details: ATP Km, read-out: Percentage of inhibition
T21 construct: purchased Life Technologies (SelectScreen Whole Panel)
Procedure, shortened: as §1

TBK1 = biological target: T22, TBK1 (Homo sapiens, UniProt Q9UHD2); details: ATP Km, read-out: Percentage of inhibition
T22 construct: purchased Life Technologies (SelectScreen Whole Panel service)
Procedure, shortened: as §1

DYRK1A = biological target: T23, DYRK1A (Homo sapiens, UniProt Q13627); details: ATP Km, read-out: Percentage of inhibition
T23 construct: purchased Life Technologies
Procedure, shortened: as §1

PAK3 = biological target: T24, PAK3 (Homo sapiens, UniProt O75914); details: ATP Km, read-out: Percentage of inhibition
T24 construct: purchased Life Technologies
Procedure, shortened: as §1

TAOK2 (TAO1) = biological target: T25, TAOK2 (TAO1) (Homo sapiens, UniProt Q9UL54); details: ATP Km, read-out: Percentage of inhibition
T25 construct: purchased Life Technologies
Procedure, shortened: as §1

LYN A = biological target: T26, LYN A (Homo sapiens, UniProt P07948); details: ATP Km, read-out: Percentage of inhibition
T26 construct: purchased Life Technologies (SelectScreen Whole Panel)
Procedure, shortened: as §1

BRAF V599E = biological target: T27, BRAF V599E (Homo sapiens, UniProt P15056, V600E); details: ATP 100 µM, read-out: Percentage of inhibition
T27 construct: purchased Life Technologies
Procedure, shortened: as §1

MELK = MELK (Homo sapiens, UniProt Q14680); details: ATP Km, read-out: Percentage of inhibition
Procedure, shortened: as §1

EPHA8 = biological target: T28, EPHA8 (Homo sapiens, UniProt P29322); details: ATP Km, read-out: Percentage of inhibition
T28 construct: purchased Life Technologies (SelectScreen Whole Panel service)
Procedure, shortened: as §1

ADRBK1 (GRK2) = biological target: T29, ADRBK1 (GRK2) (Homo sapiens, UniProt P25098); details: ATP Km, read-out: Percentage of inhibition
T29 construct: purchased Life Technologies (SelectScreen Whole Panel)
T29 sequence (P25098 whole entry): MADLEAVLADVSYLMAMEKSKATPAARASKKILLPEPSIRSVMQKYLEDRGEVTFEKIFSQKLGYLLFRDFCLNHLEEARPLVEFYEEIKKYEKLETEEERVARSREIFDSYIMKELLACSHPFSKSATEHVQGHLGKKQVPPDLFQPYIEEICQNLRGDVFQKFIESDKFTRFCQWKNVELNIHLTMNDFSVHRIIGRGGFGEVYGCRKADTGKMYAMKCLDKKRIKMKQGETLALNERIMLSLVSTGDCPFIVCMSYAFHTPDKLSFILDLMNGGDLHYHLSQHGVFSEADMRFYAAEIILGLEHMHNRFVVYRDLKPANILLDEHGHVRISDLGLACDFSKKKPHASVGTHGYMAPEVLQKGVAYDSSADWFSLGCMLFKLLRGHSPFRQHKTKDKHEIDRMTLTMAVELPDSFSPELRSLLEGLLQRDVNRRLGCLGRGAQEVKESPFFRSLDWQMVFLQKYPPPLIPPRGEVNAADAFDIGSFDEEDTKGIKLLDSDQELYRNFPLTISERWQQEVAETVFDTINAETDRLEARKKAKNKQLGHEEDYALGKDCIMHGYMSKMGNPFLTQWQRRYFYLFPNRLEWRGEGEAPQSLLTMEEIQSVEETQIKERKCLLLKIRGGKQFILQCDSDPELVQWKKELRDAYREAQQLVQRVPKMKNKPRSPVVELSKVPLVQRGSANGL
Procedure, shortened: as §1

AURKA (Aurora A) = AURKA (Aurora A) (Homo sapiens, UniProt O14965); details: ATP Km, read-out: Percentage of inhibition
Procedure, shortened: as §1

PLK1 = biological target: T30, PLK1 (Homo sapiens, UniProt P53350); details: ATP Km, read-out: Percentage of inhibition
T30 construct: purchased Life Technologies (SelectScreen Whole Panel service)
Procedure, shortened: as §1

CDK2/cyclin A = biological target: T31, CDK2/cyclin A (Homo sapiens, UniProt P24941); details: ATP Km, read-out: Percentage of inhibition
T31 construct: purchased Life Technologies
Procedure, shortened: as §1

SRC N1 = SRC N1 (Homo sapiens, UniProt P12931); details: ATP Km, read-out: Percentage of inhibition
Procedure, shortened: as §1

T1 sequence (P15735 whole entry): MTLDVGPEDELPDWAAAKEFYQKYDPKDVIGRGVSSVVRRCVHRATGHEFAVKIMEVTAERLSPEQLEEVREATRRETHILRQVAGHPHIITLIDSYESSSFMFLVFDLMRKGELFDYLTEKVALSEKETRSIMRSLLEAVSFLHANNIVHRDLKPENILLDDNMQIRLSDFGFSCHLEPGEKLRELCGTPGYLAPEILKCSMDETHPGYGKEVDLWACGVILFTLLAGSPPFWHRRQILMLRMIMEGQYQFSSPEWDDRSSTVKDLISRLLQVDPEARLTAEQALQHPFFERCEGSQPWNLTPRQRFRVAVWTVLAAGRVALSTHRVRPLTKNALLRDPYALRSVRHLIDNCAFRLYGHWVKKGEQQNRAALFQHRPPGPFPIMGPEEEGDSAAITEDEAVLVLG

COc1ccc2[nH]c3c(=O)[nH]c4ccc(O)cc4c3c2c1 [Compound 55, 2-Hydroxy-10-methoxy-5,7-dihydro-6H-indolo[2,3-c]quinolin-6-one] was tested, and the inhibition at 1 µM (PHKG2) was 8%, the inhibition at 1 µM (HCK) was 38% and the inhibition at 1 µM (RAF1 (cRAF) Y340D Y341D) was 94%. The inhibition at 1 µM (EGFR (ErbB1) T790M) was 30%, the inhibition at 1 µM (ABL1 T315I) was 24% and the inhibition at 1 µM (LCK) was 67%. For the same compound, the inhibition at 1 µM (ABL2 (Arg)) was 24%, the inhibition at 1 µM (MAP3K9 (MLK1)) was 63% and the inhibition at 1 µM (RPS6KB2 (p70S6Kb)) was 8%. It also gave an inhibition at 1 µM (RPS6KA4 (MSK2)) of 39%, an inhibition at 1 µM (MET M1250T) of 12% and an inhibition at 1 µM (CDK18/cyclin Y) of 36%. The inhibition at 1 µM (KIT V559D V654A) was 19%, the inhibition at 1 µM (ABL1 E255K) was 39% and the inhibition at 1 µM (GRK4) was 42%. The inhibition at 1 µM (JAK2 JH1 JH2) was 33%, the inhibition at 1 µM (MAP4K4 (HGK)) was 81% and the inhibition at 1 µM (MAP3K19 (YSK4)) was 49%. For the same compound, the inhibition at 1 µM (MAP4K2 (GCK)) was 47%, the inhibition at 1 µM (EGFR (ErbB1) G719S) was 11% and the inhibition at 1 µM (EEF2K) was 7%. The inhibition at 1 µM (ADRBK2 (GRK3)) was 0%, the inhibition at 1 µM (EGFR (ErbB1) C797S) was 4% and the inhibition at 1 µM (DNA-PK) was 54%. The inhibition at 1 µM (TBK1) was 49%, the inhibition at 1 µM (DYRK1A) was 96% and the inhibition at 1 µM (PAK3) was 5%. It also gave an inhibition at 1 µM (TAOK2 (TAO1)) of 3%, an inhibition at 1 µM (LYN A) of 49% and an inhibition at 1 µM (BRAF V599E) of 96%. It also gave an inhibition at 1 µM (MELK) of 57%, an inhibition at 1 µM (EPHA8) of 10% and an inhibition at 1 µM (ADRBK1 (GRK2)) of -3%. The inhibition at 1 µM (AURKA (Aurora A)) was 58%, the inhibition at 1 µM (PLK1) was 10% and the inhibition at 1 µM (CDK2/cyclin A) was 34%. For the same compound, the inhibition at 1 µM (SRC N1) was 59%.

— paper PMC9186362, “Design and biological evaluation of substituted 5,7-dihydro-6H-indolo[2,3-c]quinolin-6-one as novel selective Haspin inhibitors” (Journal of Enzyme Inhibition and Medicinal Chemistry, 2022)
